pIC50: −log10 of the molar value.
Target: T1, human FASN (Homo sapiens, UniProt P49327)
T1 construct: was purified from SKBR3 cells using procedures modified from those in Jayakumar et al; endogenous in cells; host or cells: SKBR3 human breast cancer cells (ATCC); Endogenous enzyme purified by ammonium sulfate precipitation and a mono Q column
Experiment: FASN Scintillation Proximity Flashplate Assay
Type: biochemical
Conditions: human FASN purified from SKBR3 cells; unstarred symbols
Description: Human FASN protein (SEQ ID NO. 1) was purified from SKBR3 cells using procedures modified from those in Jayakumar et al. PNAS 1995, 92:8695-8699. SKBR3 cells were obtained from ATCC and grown in DMEM high glucose medium supplemented with 10% FBS, 1 μg/mL bovine pancreas insulin, 100 U/mL penicillin and 100 µg/mL streptomycin. The confluent cells were trypsinized and washed three times with PBS buffer before frozen in liquid N2 and stored at −80° C. Frozen cells were thawed on ice and resuspended in lysis buffer (25 mM Tris-HCl, pH 7.0, 15 mM NaCl, 1 mM EDTA, and 1 mM DTT) with protease inhibitors. The cells were lysed by sonication, and the cell debris was removed by centrifugation at 20,000 rpm for 30 min. To the supernatant, neutralized saturated ammonium sulfate solution was added to a final concentration of 35%. The solution was left on ice for 1 hr, and the precipitated proteins were harvested by centrifugation at 20,000 rpm for 30 min. The proteins were redissolved in lysis buffer without NaCl and loaded on a mono Q column. Bound proteins were eluted with a linear gradient of NaCl in lysis buffer. Each fraction was analyzed by SDS-PAGE and FASN NADPH consumption assay. The fractions containing FASN were pooled and concentrated to 2-3 mg/mL. Glycerol was added to 20%, and the protein was frozen in liquid N2 and stored at −80° C.
Acetyl-coenzyme A, malonyl-coenzyme A, NADPH, bovine gamma globulin, and ORLISTAT were purchased from Sigma (St. Louis, Mo.). Tris(2-carboxyethyl) phosphine hydrochloride (TCEP) was purchased from Pierce Biotechnologies (Rockford, Ill.). [^3H]-acetyl-coenzyme A was purchased from Moravek Biochemicals (Brea, CA). FlashPlate™ PLUS phospholipid 96-well scintillant coated microplates were purchased from Perkin Elmer Life and Analytical Sciences (Shelton, CT). The method of the FASN Scintillation Proximity FlashPlate assay is similar to that described in Weiss and Glickman Assay Drug Dev Technol 2003, 1:161-6. In a 96-well polypropylene microplate, a dilution series (typical concentrations 60 nM-1.0 mM) of test compounds were prepared in DMSO followed by a 20-fold dilution into FASN assay buffer (50 mM potassium phosphate, pH 7.0, 1.0 mM EDTA, 0.01% NP-40), of which 5.0 μL each was transferred to a FlashPlate® PLUS 96-well plate and mixed with 35 μL FASN assay buffer plus 0.5 mg/mL bovine gamma globulin and 1 mM TCEP. FASN protein (10 μL, 10 nM) was added per well, and the microplate was incubated at 37° C. for 30 min. 10 μL of 20 mM NADPH was added, and the reaction was initiated by addition of […] substrate mixture to final concentrations of 1 nM FASN, 100 μM acetyl-coenzyme A, 6 μCi [^3H]-acetyl-coenzyme A, 300 μM malonyl-coenzyme A, 2 mM NADPH, 0.5 mg/mL bovine gamma globulin, and 1 mM TCEP in a volume of 100 μL per well. Assay plates were incubated for 2 hr at 37° C. and the reaction was stopped with 2 μL of 2.5 mM stock solution of ORLISTAT in DMSO to ˜50 μM. The plates were read in a Wallac 1450 Microbeta Plus liquid scintillation counter (Perkin Elmer, Waltham, Mass.), and counts per minute (CPM) were collected over 2 min. Each inhibitor well CPM was compared to the maximum FASN enzyme activity (Max) CPM and the background (Min) CPM, as measured by omission of FASN enzyme in the background well. % Inhibition values were calculated, and curves were fitted by a four-parameter logistic function to yield IC50 values:
Compounds were assayed as inhibitors of human FASN using the above-described FASN Scintillation Proximity Flashplate Assay (IC50; nM) or FASN NADPH Consumption Assay (*) (IC50; nM). The corresponding activity of the isolated compound is also provided along with the measured mass (ES^+).

T1 sequence (P49327 whole entry): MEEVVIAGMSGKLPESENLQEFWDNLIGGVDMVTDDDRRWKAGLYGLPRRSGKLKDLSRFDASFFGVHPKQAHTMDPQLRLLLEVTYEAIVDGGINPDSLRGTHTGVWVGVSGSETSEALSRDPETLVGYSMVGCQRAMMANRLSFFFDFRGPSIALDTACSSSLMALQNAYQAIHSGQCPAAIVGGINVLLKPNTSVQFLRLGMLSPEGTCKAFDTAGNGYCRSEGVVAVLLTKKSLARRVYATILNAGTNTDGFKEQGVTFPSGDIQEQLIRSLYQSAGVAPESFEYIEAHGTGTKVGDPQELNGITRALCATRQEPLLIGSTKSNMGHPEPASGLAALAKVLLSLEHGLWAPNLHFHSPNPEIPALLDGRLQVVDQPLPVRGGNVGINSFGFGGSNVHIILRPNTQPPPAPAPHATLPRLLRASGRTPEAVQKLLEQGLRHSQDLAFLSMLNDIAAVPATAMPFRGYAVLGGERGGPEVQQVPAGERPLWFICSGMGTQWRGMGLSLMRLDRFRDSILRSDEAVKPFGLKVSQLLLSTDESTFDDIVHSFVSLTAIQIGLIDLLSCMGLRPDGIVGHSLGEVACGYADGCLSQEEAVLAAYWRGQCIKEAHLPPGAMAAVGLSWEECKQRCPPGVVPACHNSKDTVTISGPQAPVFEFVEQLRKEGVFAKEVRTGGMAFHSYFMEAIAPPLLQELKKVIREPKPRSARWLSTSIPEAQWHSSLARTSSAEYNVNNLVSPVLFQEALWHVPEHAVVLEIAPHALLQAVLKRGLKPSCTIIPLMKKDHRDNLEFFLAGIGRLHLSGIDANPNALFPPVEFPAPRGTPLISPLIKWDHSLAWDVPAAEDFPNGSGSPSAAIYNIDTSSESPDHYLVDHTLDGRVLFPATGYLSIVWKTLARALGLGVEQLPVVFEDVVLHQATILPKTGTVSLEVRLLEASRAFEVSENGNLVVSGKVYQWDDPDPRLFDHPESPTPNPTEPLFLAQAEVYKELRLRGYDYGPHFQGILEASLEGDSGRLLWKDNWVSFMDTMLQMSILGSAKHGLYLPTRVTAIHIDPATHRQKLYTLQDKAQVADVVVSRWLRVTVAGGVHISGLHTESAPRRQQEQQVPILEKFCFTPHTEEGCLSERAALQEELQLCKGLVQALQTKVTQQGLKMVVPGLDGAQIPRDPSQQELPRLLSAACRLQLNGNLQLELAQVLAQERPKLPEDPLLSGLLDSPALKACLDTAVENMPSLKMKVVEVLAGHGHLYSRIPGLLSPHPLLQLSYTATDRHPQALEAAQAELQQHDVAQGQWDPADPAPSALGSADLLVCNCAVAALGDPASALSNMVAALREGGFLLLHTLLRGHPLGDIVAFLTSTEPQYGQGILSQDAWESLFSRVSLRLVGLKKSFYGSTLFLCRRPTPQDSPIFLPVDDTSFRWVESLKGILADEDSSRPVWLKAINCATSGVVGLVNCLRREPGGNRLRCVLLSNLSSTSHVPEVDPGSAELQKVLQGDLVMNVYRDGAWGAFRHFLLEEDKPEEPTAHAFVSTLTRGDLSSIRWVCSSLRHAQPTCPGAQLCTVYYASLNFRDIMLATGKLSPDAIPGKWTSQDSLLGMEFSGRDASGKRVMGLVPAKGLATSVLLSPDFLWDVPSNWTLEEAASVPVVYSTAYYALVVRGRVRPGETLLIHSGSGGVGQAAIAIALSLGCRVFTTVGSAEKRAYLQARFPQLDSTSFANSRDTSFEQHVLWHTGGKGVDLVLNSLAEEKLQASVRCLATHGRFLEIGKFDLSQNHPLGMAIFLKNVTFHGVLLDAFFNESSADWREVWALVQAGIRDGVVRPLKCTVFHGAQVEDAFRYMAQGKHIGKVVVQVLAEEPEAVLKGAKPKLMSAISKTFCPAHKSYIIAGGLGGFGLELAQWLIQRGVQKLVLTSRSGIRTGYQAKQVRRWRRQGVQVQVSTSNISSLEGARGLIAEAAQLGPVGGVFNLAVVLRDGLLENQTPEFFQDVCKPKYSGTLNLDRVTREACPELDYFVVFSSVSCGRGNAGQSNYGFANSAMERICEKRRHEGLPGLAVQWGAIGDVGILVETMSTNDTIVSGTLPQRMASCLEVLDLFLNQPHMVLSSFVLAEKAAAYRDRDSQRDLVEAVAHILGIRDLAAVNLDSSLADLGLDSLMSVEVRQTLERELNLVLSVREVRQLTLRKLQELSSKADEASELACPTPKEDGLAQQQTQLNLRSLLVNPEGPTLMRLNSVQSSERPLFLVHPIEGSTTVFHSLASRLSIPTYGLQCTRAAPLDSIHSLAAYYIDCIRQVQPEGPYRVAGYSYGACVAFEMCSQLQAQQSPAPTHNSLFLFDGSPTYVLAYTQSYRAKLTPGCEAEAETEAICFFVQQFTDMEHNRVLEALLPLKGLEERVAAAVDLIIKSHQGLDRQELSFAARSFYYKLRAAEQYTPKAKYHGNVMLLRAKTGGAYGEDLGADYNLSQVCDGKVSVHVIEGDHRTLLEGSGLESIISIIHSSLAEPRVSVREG

pIC50	Compound
> 7.82	CCN(C(=O)n1nnn(-c2ccccc2OC)c1=O)c1cc(C(=O)O)ccc1OCCc1ccccc1
5.30 to 6.70	COc1ccc(N(C(=O)n2nnn(-c3ccccc3OC)c2=O)C(C)C)cc1C(=O)O
> 7.82	CCN(C(=O)n1nnn(-c2ccccc2OC)c1=O)c1ccc(OC)c(C(=O)OCc2ccccc2)c1
6.70 to 7.00	CCN(C(=O)n1nnn(-c2ccccc2OC)c1=O)c1ccc(OC)cc1
> 7.82	COc1ccc(N(C(=O)n2nnn(-c3c(F)cccc3OC)c2=O)C2CCCC2)cc1C(=O)O
7.00 to 7.82	CCN(C(=O)n1nnn(-c2c(F)cccc2OC)c1=O)c1ccc(OC)c(C(=O)O)c1
> 7.82	COc1ccc(N(C(=O)n2nnn(-c3c(F)cccc3OC)c2=O)C2CCCC2)cc1C(=O)OCc1ccccc1
7.00 to 7.82	COc1cccc(F)c1-n1nnn(C(=O)N(c2ccccc2)C2CCCCC2)c1=O
> 7.82	CCN(C(=O)n1nnn(-c2c(F)cccc2OC)c1=O)c1ccccc1OCCc1ccccc1
7.00 to 7.82	CCN(C(=O)n1nnn(-c2c(F)cccc2OC)c1=O)c1ccc(C(=O)O)c(OC)c1
> 7.82	COc1ccc(COC(=O)c2cc(N(C(=O)n3nnn(-c4c(F)cccc4OC)c3=O)C(C)C)ccc2OCCc2ccccc2)cc1
5.30 to 6.70	COc1cccc(F)c1-n1nnn(C(=O)N(c2cccc(F)c2)C(C)(C)C)c1=O
> 7.82	COc1ccc(N(C(=O)n2nnn(-c3c(F)cccc3OC)c2=O)C2CCCCC2)cc1C(=O)O
7.00 to 7.82	COc1cccc(F)c1-n1nnn(C(=O)N(c2cccc(C(=O)O)c2)C(C)C)c1=O
7.00 to 7.82	COc1ccc(C(=O)OCc2ccccc2)cc1N(C(=O)n1nnn(-c2c(F)cccc2OC)c1=O)C(C)C
> 7.82	COc1ccc(C(=O)O)cc1N(C(=O)n1nnn(-c2c(F)cccc2OC)c1=O)C(C)C
5.30 to 6.70	COc1cccc(F)c1-n1nnn(C(=O)N(CC(C)(C)C)c2cccc(C(=O)O)c2)c1=O
> 7.82	COc1cccc(F)c1-n1nnn(C(=O)N(c2ccccc2)C2CCCC2)c1=O
7.00 to 7.82	COc1cccc(F)c1-n1nnn(C(=O)N(c2ccc(OCCc3ccccc3)c(C(=O)O)c2)C(C)C)c1=O
7.00 to 7.82	CCN(C(=O)n1nnn(-c2c(F)cccc2OC)c1=O)c1cc(C(=O)O)ccc1OC(C)C
5.30 to 6.70	CCN(C(=O)n1nnn(-c2c(F)cccc2OC)c1=O)c1cc(Oc2ccc(C(=O)OCc3ccccc3)cc2)ccc1C

pIC50	Compound
> 7.82	CCN(C(=O)n1nnn(-c2c(F)cccc2OC)c1=O)c1cccc(Oc2cccc(C(=O)O)c2)c1
5.30 to 6.70	COc1cccc(F)c1-n1nnn(C(=O)N(c2cccc(C(=O)O)c2)C(C)(C)C)c1=O
7.00 to 7.82	CCN(C(=O)n1nnn(-c2c(F)cccc2OC)c1=O)c1cc(Oc2ccc(C(=O)O)cc2)ccc1C
> 7.82	COc1ccc(N(C(=O)n2nnn(-c3c(F)cccc3OC)c2=O)C(C)C)cc1C(=O)OCc1ccccc1
7.00 to 7.82	COc1ccc(N(C(=O)n2nnn(-c3c(F)cccc3OC)c2=O)C(C)C)cc1C(=O)O
> 7.82	COc1cccc(F)c1-n1nnn(C(=O)N(c2cccc(C(=O)OCc3ccccc3)c2)C2CC2)c1=O
> 7.82	CCN(C(=O)n1nnn(-c2c(F)cccc2OC)c1=O)c1cc(C(=O)O)ccc1OCCc1ccccc1
7.00 to 7.82	COc1cccc(F)c1-n1nnn(C(=O)N(c2ccccc2)C2CCOCC2)c1=O
> 7.82	CCCCOc1ccc(C(=O)O)cc1N(CC)C(=O)n1nnn(-c2c(F)cccc2OC)c1=O
7.00 to 7.82	COc1cccc(F)c1-n1nnn(C(=O)N(CC(C)(C)C)c2cccc(C(=O)OCc3ccccc3)c2)c1=O
5.30 to 6.70	COc1cccc(F)c1-n1nnn(C(=O)N(c2cccc(C(=O)OCc3ccccc3)c2)C(C)(C)C)c1=O
> 7.82	CCN(C(=O)n1nnn(-c2c(F)cccc2OC)c1=O)c1ccccc1
> 7.82	CCC(C)N(C(=O)n1nnn(-c2c(F)cccc2OC)c1=O)c1cccc(C(=O)OCc2ccccc2)c1 (stereo not drawn)
> 7.82	COc1ccc(C(=O)O)cc1N(C(=O)n1nnn(-c2c(F)cccc2OC)c1=O)C1CCCCC1
7.00 to 7.82	COCCOc1ccc(N(C(=O)n2nnn(-c3c(F)cccc3OCCOC)c2=O)C2CCCCC2)cc1C(=O)O
> 7.82	COCCOc1cccc(F)c1-n1nnn(C(=O)N(c2ccc(OC)c(C(=O)O)c2)C2CCCCC2)c1=O
> 7.82	COc1ccc(N(C(=O)n2nnn(-c3c(F)cccc3OCC(OC)OC)c2=O)C2CCCCC2)cc1C(=O)O
> 7.82	COc1ccc(N(C(=O)n2nnn(-c3c(F)cccc3OC(C)C)c2=O)C2CCCCC2)cc1C(=O)O
7.00 to 7.82	COc1ccc(C(=O)O)cc1N(C(=O)n1nnn(-c2c(F)cccc2OC(C)C)c1=O)C1CCCCC1
7.00 to 7.82	COc1ccc(C(=O)OCc2ccccc2)cc1N(C(=O)n1nnn(-c2c(F)cccc2OC(C)C)c1=O)C1CCCCC1
7.00 to 7.82	COc1ccc(N(C(=O)n2nnn(-c3c(F)cccc3C(=O)O)c2=O)C(C)C)cc1C(=O)OCc1ccccc1

pIC50	Compound
5.30 to 6.70	CCN(C(=O)n1nnn(-c2c(F)cccc2C(=O)N2CCOCC2)c1=O)c1ccccc1Oc1ccccc1
> 7.82	COc1ccc(N(C(=O)n2nnn(-c3c(F)cccc3C(=O)N3CCOCC3)c2=O)C(C)C)cc1C(=O)OCc1ccccc1
5.30 to 6.70	COc1ccc(N(C(=O)n2nnn(-c3c(F)cccc3C(=O)N3CCOCC3)c2=O)C(C)C)cc1C(=O)O
> 7.82	COc1ccc(N(C(=O)n2nnn(-c3c(F)cccc3C(=O)N3CCCCC3)c2=O)C(C)C)cc1C(=O)OCc1ccccc1
7.00 to 7.82	COc1ccc(N(C(=O)n2nnn(-c3c(F)cccc3C(=O)N3CCCCC3)c2=O)C(C)C)cc1C(=O)O
6.70 to 7.00	CCN(C(=O)n1nnn(-c2c(F)cccc2C(=O)N2CCCCC2)c1=O)c1ccccc1Oc1ccccc1
> 7.82	CCN(C(=O)n1nnn(-c2c(F)cccc2C(=O)NCc2ccccc2)c1=O)c1ccccc1
7.00 to 7.82	CCN(C(=O)n1nnn(-c2c(F)cccc2C(=O)NCc2ccccc2)c1=O)c1ccccc1Oc1ccccc1
> 7.82	COc1ccc(N(C(=O)n2nnn(-c3c(F)cccc3C(=O)N(C)Cc3ccccc3)c2=O)C(C)C)cc1C(=O)O
> 7.82	COc1ccc(N(C(=O)n2nnn(-c3c(F)cccc3C(=O)N(C)Cc3ccccc3)c2=O)C(C)C)cc1C(=O)OCc1ccccc1
7.00 to 7.82	COc1ccc(N(C(=O)n2nnn(-c3c(F)cccc3C(=O)N(C)c3ccccc3)c2=O)C(C)C)cc1C(=O)O
5.30 to 6.70	COc1ccc(N(C(=O)n2nnn(-c3c(F)cccc3C(=O)N(C)C)c2=O)C(C)C)cc1C(=O)O
> 7.82	COc1ccc(N(C(=O)n2nnn(-c3c(F)cccc3C(=O)N(C)C)c2=O)C(C)C)cc1C(=O)OCc1ccccc1
7.00 to 7.82	COc1ccc(N(C(=O)n2nnn(-c3c(F)cccc3N3CCOCC3)c2=O)C2CCCCC2)cc1C(=O)O
> 7.82	COc1ccc(COC(=O)c2cc(N(C(=O)n3nnn(-c4cccc5nsnc45)c3=O)C3CCCCC3)ccc2OC)cc1
7.00 to 7.82	COc1ccc(N(C(=O)n2nnn(-c3cccc4nsnc34)c2=O)C2CCCCC2)cc1C(=O)O
7.00 to 7.82	COc1ccc(N(C(=O)n2nnn(-c3cccc(N)c3N)c2=O)C2CCCCC2)cc1C(=O)O
6.70 to 7.00	COc1ccc(N(C(=O)n2nnn(-c3cccc4nc[nH]c34)c2=O)C2CCCCC2)cc1C(=O)O
> 7.82	O=C(O)c1ccc(N(C(=O)n2nnn(-c3c(F)cccc3F)c2=O)C2CCCCC2)cn1
6.70 to 7.00	CN(Cc1cccc2ccccc12)C(=O)n1nnn(-c2c(F)cccc2F)c1=O
> 7.82	CC(C)N(C(=O)n1nnn(-c2c(F)cccc2F)c1=O)c1cc(C(=O)O)ccc1Oc1ccccc1
